Measurements taken from patent publication US4175081A, “5-Substituted thiadiazole ureas” (priority 1977, dated 1979).

Key:
Turnip (TP) [1] = test: Pre-emergence herbicide test; type: in vivo, Brassica sp.; conditions: Brassica rapa, pre-emergence, 336 h, two weeks after treatment
Summary of the method: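 Turnip (Brassica sp.) seeds were surface sown in 3' plastic pots of potting soil, covered with a thin layer of screened soil, and sub-irrigated in greenhouse trays. Pots were seeded one day ahead of treatment, sprayed pre-emergence under a hood with a fixed nozzle and moving belt, then kept in the greenhouse.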

[2] = Acute oral toxicity in rats; conditions: rat, in vivo
[3] = test system: variety of crops and weed species; test: Pre- and post-emergence herbicide tests, overall assessment of Tables III-VI; type: in vivo; conditions: data of Tables III-VI
Summary of the method: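 Crops and weeds grown in potting soil were sprayed at 8 lbs. compound per acre in 38 gallons per acre, pre-emergence pots seeded one day before treatment. Injury or control was visually rated two weeks after treatment.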

Johnson grass (JG) = test: Post-emergence herbicide test; type: in vivo, Sorgum helepense; conditions: Sorghum halepense, 336 h, two weeks after treatment
Summary of the method: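 Greenhouse pot-grown seedlings sprayed post-emergence at 8 lbs compound per acre (some at 4 lbs/acre) in 38 gallons per acre spray volume. Sub-irrigated thereafter. Injury/control rated visually two weeks after treatment.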

Cotton (CT) = test: Post-emergence herbicide test; type: in vivo, Gossypium hirsutum var. DPL smooth leaf; conditions: Gossypium hirsutum, post-emergence, 336 h, two weeks after treatment
Summary of the method: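 Cotton (Gossypium hirsutum var. DPL smooth leaf) was grown in 3' plastic pots of potting soil, four seeds per pot, planted at a depth equal to the seed diameter and watered by sub-irrigation. At the stage of expanded cotyledons with the first true leaf 1' long, plants were sprayed post-emergence in a hood with a fixed nozzle over a moving belt. Percent control was rated visually two weeks later.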

Turnip (TP) [4] = test: Post-emergence herbicide test; type: in vivo, Brassica sp.; conditions: Brassica rapa, post-emergence, 336 h, two weeks after treatment
Summary of the method: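 A greenhouse post-emergence herbicide test on turnip. Seeds were sown on the surface of potting soil in 3' plastic pots, lightly covered with screened soil and watered from below. Planting was timed so seedlings had 1 or 2 true leaves above the cotyledons at spraying, done in a hood with a fixed nozzle. Control or injury was scored by eye after two weeks.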

Crabgrass (CG) = test: Pre-emergence herbicide test; type: in vivo, Digitaria sanquinalis; conditions: Digitaria sanguinalis, pre-emergence, 336 h, two weeks after treatment
Summary of the method: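 Crabgrass (Digitaria sanquinalis) was surface seeded in 3' plastic pots of potting soil, covered with screened soil, and watered by sub-irrigation in greenhouse trays. Pots were seeded one day before spraying in a hood with a moving belt and fixed nozzle. Plants stayed in the greenhouse on sub-irrigation, and pre-emergence control was rated visually two weeks after treatment.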

Q: With CNC(=O)Nc1nnc(C(F)(F)F)s1 [Example 1, 1-Methyl-3-[5-Trifluoromethyl-2-(1,3,4-Thiadiazolyl)] Urea] as the compound, how does the pest or weed control at 4483.4 g/ha (Turnip (TP) [1]; 4 lb/acre) read?
A: 90%

Q: And the pest or weed control at 8966.8 g/ha (Turnip (TP) [1]; 8 lb/acre)?
A: 100%

Q: And the LD50 [2]?
A: 436 mg/kg

Q: What about the “herbicidal effectiveness / selectivity, in words” value [3] of the same compound?
A: extremely effective when applied to a variety of crops and weed species

Q: And the pest or weed control (Johnson grass (JG); 2 lb/acre)?
A: 90%

Q: And the pest or weed control at 4483.4 g/ha (Johnson grass (JG); 4 lb/acre)?
A: 90%

Q: And the pest or weed control at 8966.8 g/ha (Johnson grass (JG); 8 lb/acre)?
A: 100%

Q: And the pest or weed control at 2241.7 g/ha (Cotton (CT); 2 lb/acre)?
A: 100%

Q: What about the pest or weed control at 4483.4 g/ha (Cotton (CT); 4 lb/acre) of the same compound?
A: 100%

Q: What about the pest or weed control at 8966.8 g/ha (Cotton (CT); 8 lb/acre) of the same compound?
A: 100%

Q: What about the pest or weed control at 2241.7 g/ha (Turnip (TP) [4]; 2 lb/acre) of the same compound?
A: 80%

Q: And the pest or weed control at 4483.4 g/ha (Turnip (TP) [4]; 4 lb/acre)?
A: 100%

Q: And the pest or weed control at 8966.8 g/ha (Turnip (TP) [4]; 8 lb/acre)?
A: 100%

Q: What about the pest or weed control at 4483.4 g/ha (Crabgrass (CG); 4 lb/acre) of the same compound?
A: 90%

Q: And the pest or weed control at 8966.8 g/ha (Crabgrass (CG); 8 lb/acre)?
A: 100%
